For this data set, the target named is T1, hCES2A (Homo sapiens, UniProt O00748).
T1 construct: 10xHis; made in house; host or cells: HEK293-F cells, pTT5 vector, purified from conditioned medium
T1 sequence (O00748 27-559): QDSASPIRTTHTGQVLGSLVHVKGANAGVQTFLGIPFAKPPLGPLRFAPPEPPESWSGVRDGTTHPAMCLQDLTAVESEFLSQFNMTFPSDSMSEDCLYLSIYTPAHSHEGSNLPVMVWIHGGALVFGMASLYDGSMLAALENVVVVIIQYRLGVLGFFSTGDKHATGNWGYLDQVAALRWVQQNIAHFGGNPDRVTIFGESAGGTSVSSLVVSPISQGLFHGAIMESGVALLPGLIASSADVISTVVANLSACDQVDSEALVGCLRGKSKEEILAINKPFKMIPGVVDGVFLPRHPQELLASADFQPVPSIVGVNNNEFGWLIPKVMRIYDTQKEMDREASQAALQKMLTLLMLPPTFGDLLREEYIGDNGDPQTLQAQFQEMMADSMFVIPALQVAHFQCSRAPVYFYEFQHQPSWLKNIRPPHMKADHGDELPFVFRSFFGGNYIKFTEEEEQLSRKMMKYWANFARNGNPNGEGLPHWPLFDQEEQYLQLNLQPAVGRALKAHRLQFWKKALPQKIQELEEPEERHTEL
The experiment in a line: Reaction phenotyping assay of AB23A hydrolysis, hCES2A. The data set is classed as in vitro ADME. The following applies: hCES2A 5 μg/mL, AB23A 20 μM, 60 min, pH 7.4 at 37°C. The method, then: The hydrolytic rates of AB23A in different human recombinant enzymes (hCES1A, hCES2A, hPL, hIAH1, hNotum, hAchE, hBchE, hSA, hCTSA, hMAGL) were assayed. The incubation system included PBS, each tested enzyme (5 μg/mL, final concentration), and AB23A (20 μM). After incubation for 1 h at 37°C, ice-cold acetonitrile was added to terminate the reaction and precipitate proteins. The supernatants by centrifuging were used to quantify the formation rates of AB by LC-UV analysis. The detection wavelength of AB was 196 nm.

One compound from publication PMC10117764, “The roles of serine hydrolases and serum albumin in alisol B 23-acetate hydrolysis in humans” (Frontiers in Pharmacology, 2023) can be followed below.

`CC(=O)O[C@H](C[C@@H](C)C1=C2C[C@H](O)C3[C@@]4(C)CCC(=O)C(C)(C)C4CC[C@]3(C)[C@@]2(C)CC1)[C@H]1OC1(C)C` (stereo partly shown) [AB23A, Alisol B 23-acetate]: the “Hydrolytic rate (formation of AB) in reaction phenotyping” value is listed as “also catalyzed this hydrolytic reaction”.
